{"source": "patent US5430150A", "about": "“Retroviral protease inhibitors” (American Cyanamid Company, priority 1992, dated 1995)", "key": {"HIV-1 protease": {"target": "HIV-1 protease (Human immunodeficiency virus type 1 group M subtype B, UniProt P04585)", "assay": "biochemical", "format": "biochemical", "settings": "Activity of Compounds as Enzyme Inhibitor", "experimental": "IC50 values for enzyme inhibition are determined using HIV-1 and Amersham's HIV proteinase [^125 I]-scintillation proximity assay (SPA).\nAmersham's HIV proteinase [^125 I]-SPA system is a commercial assay incorporating the scintillation proximity assay (SPA) principle available from Amersham International PLC, Bucks, England.\nThe SPA microspheres provided by Amersham have the substrate linked directly to the surface through a streptavidin-biotin link. The substrate is a 12 residue peptide designed specifically for this application utilizing current knowledge of known cleavage sites for the enzyme and analogue substrate studies. The sequence of the substrate is: [drawing 22]\nThe peptide is monoiodinated on the tyrosine residue and biotinylated through the epsilon-NH2 group on the lysine. It is linked to the SPA bead via a streptavidin-link. The beads are suspended in a buffer consisting of 5 mM DTT, 1 mM EDTA, 10% w/v glycerol, 0.05% W/v sodium azide, 0.01% v/v Triton X-100 in 25 mM sodium citrate buffer pH 5.5.\nThe enzyme cleaves at the Phe-Phe bond releasing the ^125 I fragment from the bead. This event causes the removal of detectable signal from the microsphere. […] The rate of reduction in signal is proportional to the activity of the enzyme. The obtained data is used to calculate the IC50 values found in Table 1."}, "[1]": {"assay": "mouse plasma level after IP or oral administration", "format": "in vivo", "settings": "mice; for time for which plasma concentrations of >0.13 microgram/ml are achieved: aqueous liposomal formulation"}, "[2]": {"test_system": "HIV-1 strain IIIB in T lymphoid MT-2 cell lines", "assay": "inhibition of growth of HIV-1 strain IIIB in T lymphoid MT-2 cell lines (metabolic MTT dye)", "format": "cell-based", "experimental": "In Table 2, data is shown for the ability of these compounds to inhibit growth of HIV-1 strain IIIB in T lymphoid MT-2 cell lines. The cell line is challenged by free virons selected to result in 90-95% cell death (CPE) by day 5. The protease inhibitor compound is then added in the stated concentration. After 5 days, the surviving cells are measured using metabolic MTT dye."}}}
{"compound": "CC[C@H](C)[C@H](NC(=O)[C@H](Cc1ccccc1)CC(O)CN1C[C@H]2CCCC[C@H]2C[C@H]1C(=O)NC(C)(C)C)C(=O)NCc1nc2ccccc2[nH]1", "note": "(single isomer, unassigned) [Example 24B, [3S-[2[alphaS*(1R*,2R*),gammaS*(or R*)],3alpha,4abeta,8abeta]]-N-[1-[[(1H-Benzimidazol-2-ylmethyl)amino]carbonyl]-2-methylbutyl]-3-[[(1,1-dimethylethyl)amino]carbonyl]decahydro-gamma-hydroxy-alpha-(phenylmethyl)-2-isoquinolinepentanamide]", "values": [{"measurement": "IC50", "setting": "HIV-1 protease", "value": 72.8, "unit": "nM"}, {"measurement": "time for which plasma concentrations of >0.13 microgram/ml are achieved", "setting": "[1]; IP 8.3 mg/kg", "value": 2.8, "unit": "h"}, {"measurement": "time for which plasma concentrations of >0.13 microgram/ml are achieved", "setting": "[1]; IP 16.6 mg/kg", "value": 4.2, "unit": "h"}, {"measurement": "time for which plasma concentrations >0.13 microgram/ml are maintained", "setting": "[1]; oral 16.6 mg/kg (FIG. 1)", "value": 2, "unit": "h"}, {"measurement": "% Inhibition at concentration 0.010 μg/ml", "setting": "[2]; 0.010 μg/ml, 5 days", "value": 16.2, "unit": "%"}, {"measurement": "% Inhibition at concentration 0.039 μg/ml", "setting": "[2]; 0.039 μg/ml, 5 days", "value": 81.4, "unit": "%"}, {"measurement": "% Inhibition at concentration 0.156 μg/ml", "setting": "[2]; 0.156 μg/ml, 5 days", "value": 93.0, "unit": "%"}, {"measurement": "% Inhibition at concentration 0.625 μg/ml", "setting": "[2]; 0.625 μg/ml, 5 days", "value": 94.7, "unit": "%"}, {"measurement": "% Inhibition at concentration 2.5 μg/ml", "setting": "[2]; 2.5 μg/ml, 5 days", "value": 94.9, "unit": "%"}, {"measurement": "inhibition of HIV-1 strain IIIB viral growth in MT-2 cell lines", "setting": "[2]; concentration >0.13 microgram/ml", "value": "> 90", "unit": "%"}]}
